This note sets out measurements from paper PMC12648443, “Modifications of NU-9, a potent protein aggregation inhibitor. Properties and activity in a cellular model of amyotrophic lateral sclerosis” (Bioorganic chemistry, 2025).

A short description of series [1]: Microsomal metabolic stability, human. As to conditions: liver microsomes; for microsomal CLint at 1.1 μM: pH 7.4, 0.5 mg/mL; for half-life at 1.1 μM: pH 7.4, read-out: t1/2 (human). It counts as in vitro ADME. The procedure: (§1) The assay was performed at Jubilant Biosys. Vials containing human or mouse microsomes were collected from the -80 °C freezer and thawed on ice. Then 27.5 μL of the initial microsome solutions (20 mg/mL) were diluted in 971.5 μL of a 67 mM potassium phosphate buffer solution (pH 7.4). The testing compounds were diluted in the buffered microsomal solution to obtain a final concentration of 1.1 μM. Then four different aliquots, each containing 180 μL of the assay solution, representing the samples at T = 0, T = 5, T = 15, and T = 30 min. The samples were pre-incubated at 37 °C for 5 min with gentle shaking, and then 20 μL of a NADPH solution (10 mM) was added to the different solutions of the test compounds. […] An aliquot of the supernatant (200 μL) was collected from each reaction sample and analyzed by LC-MS/MS. The Ln values of the peak area of the compounds to the internal standard over time (min.) were graphed using Excel, and the elimination rates of the compounds (k) were determined from the slopes obtained from the graphs. The k values were used to calculate the compounds half-life using the equation: t1/2=Ln2/k The intrinsic clearance (CLint) of each compound in the presence of mouse and human microsomes was calculated using the equation: […] Verapamil and Ketoconazole were used as controls to evaluate the assay performance. The results are presented as an average of two technical replicates.
A general note: Liver microsomes are vesicles of endoplasmic reticulum, rich in cytochrome P450 enzymes.

Series [2] can be described thus: Microsomal metabolic stability, mouse. Type of series: in vitro ADME. To be noted: liver microsomes; for microsomal CLint at 1.1 μM: pH 7.4, 0.5 mg/mL; for half-life at 1.1 μM: pH 7.4, read-out: t1/2 (mouse). The procedure:
as §1

Series [3] can be described thus: In vitro cytotoxicity, CellTiter-Glo, HepG2. Type of series: cell-based. As to conditions: human, HepG2 cells; for viability at 24 h, 30 μM / viability at 48 h, 30 μM: relative to untreated cells, read-out: Percentage of viable cells observed at 30 μM treatment, HepG2; for EC50 at 24 h / EC50 at 48 h: cytotoxicity. The procedure:
(§2) The HepG2 and HEK293 cells were cultured in DMEM media supplemented with 10 % FBS (heat-inactivated), 1 % Pen-strep, and L-glutamine and incubated at 37 °C in humidified air with 5 % CO2 until 85–90 % confluency. The PC12 Tet-Off-SOD1^G85R YFP cells were maintained as described in 4.2. On the day before the experiments, the cells were transferred to white bottom 96 well plates (Greiner cat. 655,083) at a concentration of 50,000 cells/100 μL of media in each well and incubated overnight at 37 °C. Stock solutions of the compounds (30 mM) in DMSO were prepared and then diluted in media to obtain the six final working solutions starting at 30 μM, and serial dilutions were obtained with the lowest concentration at 0.25 μM. The media were removed and fresh media containing the compounds or the vehicle DMSO (0.1 % v/v) were transferred to the plates containing HepG2 and HEK293 cells and the plates were incubated for 24 or 48 h at 37 °C. The PC12 Tet-Off-SOD1^G85R YFP cells compound treatment was performed as described in section 4.2 and using a 9-point 2-fold serial dilution of the compounds starting at 15 μM and the lowest concentration at 0.05 μM. After incubation, the plates were cooled to room temperature and 25 μL of CellTiter-Glo® solution was added to each well. The plates were loaded into a BioTek Synergy H1 MD plate reader and shaken for 2 min, stabilized for 10 min without shaking, and then the luminescence values were read for each well (luminescence integration step 1 ms). Wells containing media with the vehicle DMSO with or without cells were used as controls to represent, respectively, the maximum viability and the lowest viability (background signal) for the cytotoxicity studies with HepG2 and HEK293 cell lines. The viability values for the assay performed with the PC12 Tet-Off-SOD1^G85R YFP cells were normalised for the vehicle (0.1 % DMSO) and (−)-MG-132 alone treatments, which represented respectively the […] viability for the assay.
(§3) The results are presented as an average of three independent experiments, each performed in triplicate, for the cytotoxicity experiments performed with HepG2 and HEK293 cells. The results for the protective screening with the PC12 Tet-Off-SOD1^G85R YFP cells are presented as an average of four replicates.

A further series relates to HepG2 cells. Briefly: In vitro cytotoxicity, CellTiter-Glo, HepG2. It counts as cell-based. To be noted: cytotoxicity EC50 (HepG2, HEK293) versus PC12-SOD1^G85R EC50. The method, then: as §2, §3
A general note: Cellular ATP, detected with luciferase, serves as a proxy for viable cell number.

Series [4] is described as follows: In vitro cytotoxicity, CellTiter-Glo, HEK293. It counts as cell-based. To be noted: human, HEK293 cells; for viability at 24 h, 30 μM / viability at 48 h, 30 μM: relative to untreated cells, read-out: Percentage of viable cells observed at 30 μM treatment, HEK293; for EC50 at 24 h / EC50 at 48 h: cytotoxicity. The procedure:
as §2, §3

A further series relates to HT22 hippocampal cells. Briefly: DAPRed autophagy dye live cell imaging. Type of series: cell-based, mouse. To be noted: 3 μM, 5 h treatment, bafilomycin 0.1 μM in the last 3 h. The procedure: HT22 immortalized mouse hippocampal neuronal cell line was maintained in DMEM supplemented with 10% FBS and 1% penicillin-streptomycin under standard conditions (37 °C, 5% CO2). On the day before the experiment, HT22 cells were transferred to a sterile poly-D-lysine-coated Nunc™ Lab-Tek™ II Chambered Coverglass (8 wells; Thermo Fisher Sci. cat. 155,409) at a concentration of 40,000 cells/300 μL of media in each well and incubated overnight at 37 °C. Stock solutions of Torin-1 (10 mM) and 20 (10 mM) were prepared in DMSO and then diluted in media to obtain the final treatment solutions at 0.2 and 3 μM, respectively. The media was removed, the cells were quickly washed with 1×PBS solution, and fresh media containing the compounds or the DMSO (0.1 % v/v) were transferred to the wells. The plates were incubated for 2 h. The media was removed, and after washing once with 1×PBS, fresh media containing Bafilomycin (0.1 μM), DAPRed dye (0.25 μM) and Hoescht 33,342 (55 μg/mL) was added to the wells and the cells were incubated for 3 h at 37 °C. […] Puncta structures >0.2 μm were then identified using Otsu thresholding and the results represented as particles per cell for each set of images analyzed. […] The statistical differences between two or more groups were determined by One-way ANOVA followed by Sidak post-hoc multiple-comparison test. […]

Structures are written as SMILES.

As to `O=C1CC(=O)CC(/C=C/c2cc(C(F)(F)F)cc(C(F)(F)F)c2)C1` [Compound 6, (E)-5-(3,5-Bis(trifluoromethyl)styryl)cyclohexane-1,3-dione], in series [1], the microsomal CLint – broadly, a measure of how fast metabolising enzymes remove a compound, apart from limits set by blood flow – at 1.1 μM is 25.8 ± 1.6 µL/min/mg and the half-life at 1.1 μM amounted to 53.9 ± 3.3 min. For the same compound, in series [2], the intrinsic metabolic clearance (microsomal CLint) at 1.1 μM came out at 67.3 ± 0.9 µL/min/mg and the half-life at 1.1 μM came to 20.7 ± 0.3 min. Besides, in series [3], the viability at 24 h, 30 μM worked out at 91.9%; the viability at 48 h, 30 μM came out at 94%; the EC50 (as a rule, the concentration giving half of the maximal effect) at 24 h was above 30 µM; the EC50 at 48 h is above 30 µM. In addition, the “EC50 Fold difference” value in the series with HepG2 cells was above 14. Besides, in series [4], the viability at 24 h, 30 μM came out at 82.6%; the viability at 48 h, 30 μM stood at 89.6%; the EC50 at 24 h was above 30 µM; the EC50 at 48 h was above 30 µM.

With `CC(C)(Oc1cc(C(F)(F)F)cc(C(F)(F)F)c1)C1CC(=O)CC(=O)C1` [Compound 20, 5-(2-(3,5-bis(trifluoromethyl)phenoxy)propan-2-yl)cyclohexane-1,3-dione], in series [1], the microsomal CLint at 1.1 μM came out at 10.4 ± 3.1 µL/min/mg and the half-life at 1.1 μM is above 120 min. In series [2], the microsomal CLint at 1.1 μM came to 35.7 ± 4.7 µL/min/mg and the half-life at 1.1 μM was 40.7 ± 3.8 min. Besides, in series [3], the viability at 24 h, 30 μM stood at 96%; the viability at 48 h, 30 μM turned out to be 92.3%; the EC50 at 24 h is above 30 µM; the EC50 at 48 h is above 30 µM. Further, in the series on HepG2 cells, the “EC50 Fold difference” value is listed as above 11. Further, in series [4], the viability at 24 h, 30 μM was determined as 90%; the viability at 48 h, 30 μM came to 91.6%; the EC50 at 24 h was above 30 µM; the EC50 at 48 h is above 30 µM. The “DAPRed fluorescence signal (autophagy flux) compared to vehicle” value with HT22 hippocampal cells is on record as “increasing DAPRed fluorescence signal”.
